Key:
[1] = tested on: capillary resistance of rats; assay: Capillary resistance of rats after oral administration (petechial index); type: in vivo, rat (Wistar); conditions: rat
Method: The increase in the capillary resistance is evaluated by the modification of the petechial index (negative pressure inducing the extravasation of the erythrocytes), measured by a method derived from the angiosterrometer of Parrot.
The studies are carried out on male Wistar rats with an average weight of 200 g (approximate age six weeks). The bottom area of the back is shorn, then the hair is pulled by means of a paste based on a derivative of thioglycolic acid and calcium hydroxide. After approximately 30 min, the skin is abundantly rinsed and dried.
On the day of the study, the rats are maintained without constraint. A low pressure of 80 mm of mercury is applied. If the petechiae (extravasation of erythrocytes) have not appeared within 15 sec, the low pressure is increased as a countermeasure, keeping the suction cap at the same place.
The minimum low pressure where petechias appear, in mm of mercury, expresses the basal capillary resistance (before any treatment). Two measurements are made for each test at different sites on of the back.
The rats are treated by the oral route. […] All the measurements are done in the blind mode.
A percentage of variation in the capillary resistances of the animals treated compared to their basal capillary resistance is calculated for each compound studied, at each treatment time and compared with the control group (excipient only) or the reference group.

[2] = tested on: saphenous vein in rabbits; assay: Potentiation of the contractile response of the rabbit saphenous vein to noradrenaline; type: cell-based
Method: (§1) The contractile effects are measured in vitro under static conditions on vascular capacitance or resistance rings of saphenous, femoral, jugular, mesenteric, and caval veins . . . and on femoral, carotid, basilar, or mesenteric arteries, as well as the thoracic or abdominal aorta . . . in rats (Wistar, 200-250 g), rabbits (New Zealand, 2-2.5 kg), guinea pigs (Dunkin Hartley 250-300 g).
(§2) The rings are placed in a chamber for isolated organs (25 mL for capacitance vessels and 2.5 mL for resistance vessels according to Mulvany), and maintained under isometric conditions using two rigid threads inserted inside the vessel, avoiding causing damage to the endothelium. The vessels are bathed in a modified Krebs solution (in mM: NaCl=118; KCl=4.6; CaCl2 =2.5; MgSO4 =1.2; KH2 PO4 =1.17; NaHCO3 =25; glucose=11), continuously aerated using a gaseous mixture of 95% O2 and 5% Co2, at a pH=7.4, and regulated by thermostat at 37° C. The rings are adjusted to their optimal point as far as the tension-length relationship is concerned. […] The pharmacological studies are carried out after a few standardized preliminary contractile stimulations using a depolarizing solution (hyperpotassic type obtained by replacing NaCl with KCl in equimolar quantities), along with rinsings and periods of equilibration in a pure physiological solution. […]

[3] = tested on: saphenous vein in rabbits; assay: Potentiation of the contractile response of the rabbit saphenous vein to serotonin; type: cell-based
Method: as §1, §2

[4] = tested on: hyperpermeability induced by histamine in rats; assay: Hyperpermeability induced by histamine in rats; type: in vivo, rat (Wistar); conditions: rat, oral 0.1 mg/kg, after 2 h, compared to the control group
Method: The vascular permeability is studied in vivo by measuring the extravasation of albumin, the quantity of which is determined using an albumin-binding dye (Evans blue).
The hyperpermeability is induced by the intradermal injection of a solution of histamine, bradykinin, or zymosan.
The technique is derived from that described by Beach & Steinetz, J. Pharmacol. Exp. Therap., 1961, Vol. 131: pp. 400-406.
The abdominal walls of the rats (Wistar, 200-230 g) are shorn 1 h before the start of the experiment. The product to be tested is injected by the intraperitoneal route or orally 1-4 h before the sacrifice. The rats are anesthetized with a halothane mixture. […]
At the site of the injection of the inflammatory agent, the skin is cut and placed into glass tubes with a ground[-glass] neck containing 3 mL of fuming hydrochloric acid. […] The optical densities are quantified by absorption spectrophotometry at a wavelength of 620 nm, against a blank [control] containing only dichloromethane. The averages of the optical densities of the different lots of treated or control animals are calculated, then a percentage of variation of the values corresponding to the treated [experimental] animals compared to those of the control animals is calculated.

[5] = tested on: arterial pressure of the anesthetized rat; assay: Arterial pressure of the anesthetized rat; type: in vivo; conditions: i.v. bolus at least up to 28 mg/kg
Method: The contractile effects are also measured in vitro under dynamic flow conditions, by the pressure developed by the vascular beds that are perfused at a constant flow rate. At the mesenteric level, the selective effect on veins is studied using the model of a double simultaneous and separate infusion of the arterial and venous networks model developed by T. Warner (British J. Pharmacol., 1990, Vol. 99, pp. 427-433). The separation of the two networks is achieved by cutting the vessels and the tissues along the intestinal border. The networks are perfused at 2 mL.min^-1 with a Krebs solution (37.5° C.), which is aerated using 95% O2 and 5% CO2. In vivo, the arterial and venous pressures are measured in the anesthetized animal, under basal conditions and after circulatory arrest caused by the swelling of a balloon catheter introduced at the level of the left atrium. During the cardiac arrest, the venous tone (average circulatory filling pressure at a constant blood volume) is calculated from the venous and arterial pressures measured at equilibrium and corrected as a function of the relative differences in compliance between these two networks (Samar & Coleman, Am. J. Physiol., 1978, Vol. 234: pp. H94-100; Yamamoto et al., Am. J. Physiol., 1980, Vol. 238: pp. H823-828).

O=C1c2ccccc2C(=O)c2sc(-c3ccco3)nc21 [Example n, 4,9-Dihydro-4,9-dioxo-2-(2-furyl)-naphtho[2,3-d]thiazole]
correlation of duration of action with plasma concentrations [1]: correlates with its measured plasma concentrations | dose dependence of oral effect on capillary resistance [1]: dose dependent over a broad range of doses | duration of action on capillary resistance [1]: at least 6 h | Increase of capillary resistance, effects after 4 h ([1]; 0.1 mg/kg, 4 h, * granulometry: 0.5-0.6 mm): 45 % of the control | Increase of capillary resistance, effect after 6 h ([1]; 0.1 mg/kg, 6 h, * granulometry: 0.5-0.6 mm): 45 % of the control | change of noradrenaline ED50 [2]: reduced by a factor of ten | Emax ([2]; Oryctolagus cuniculus, read-out: increase of noradrenaline Emax): 30% | contractile response due to serotonin [3]: selectively potentiates | decrease of hyperpermeability induced by histamine [4]: 26% | arterial pressure [5]: does not affect the arterial pressure
